Results: patent US20230114728A1 (Venatorx Pharmaceuticals, Inc., priority 2019, published 2023)
Converted amounts (≈) assume the structure as drawn.

Columns and labels:
[1] = tested on: P. aeruginosa ATCC 27853; assay: Broth microdilution MIC in CAMHB; format: cell-based; details: Pseudomonas aeruginosa, ATCC27853; MHB; read-out: Minimum Inhibitory Concentration, P. aeruginosa ATCC 27853
Method: (§1) Example III: In Vitro Antibacterial Assays
(§2) To determine the ability of test compounds to inhibit the growth of bacterial strains, classic cell based broth microdilution minimum inhibitory concentration (MIC) assays were employed. MIC assays are performed according to CLSI methods except where otherwise noted (CLSI, 2018 and CLSI, 2019). The reference type strain E. coli ATCC 25922; the wild-type parent strain E. coli AG100; the hyper-permeable E. coli 901C and E. coli D22; and the E. coli AG100A strain lacking the acrAB efflux pump encoding genes were used to determine the ability of the PBP inhibitors to penetrate the outer membrane of gram-negative bacteria and inhibit bacterial growth. […] The P. aeruginosa ATCC 27853 and A. baumannii ATCC 19606, along with the hyper-permeable P. aeruginosa ATCC 35151 and an engineered efflux pump-compromised strain of P. aeruginosa (ΔmexAB-oprM) were used to determine the ability of PBP inhibitors to penetrate the outer membrane of P. aeruginosa and A. baumannii and assess antibacterial activity against these important gram-negative organisms.
(§3) Briefly, cryo-preserved bacterial cultures of challenge strains are streaked for isolation on appropriate agar medium, in this case cation-adjusted Mueller Hinton agar. Following incubation to allow growth of the colonies, plates are sealed with parafilm and stored refrigerated for up to two weeks. For preparation of assay inoculum and to ensure low variability, at least 5 colonies are picked from the agar plates with an inoculating loop and aseptically transferred to a culture tube containing 3 mL of cation-adjusted Mueller Hinton broth (CAMHB). The broth culture is grown for 3-5 hours at 37° C. with shaking at 200 rpm. Meanwhile, 2-fold serial dilutions of test compounds are conducted in a 96-well plate with a final volume of 75 μL per well at 2-fold the final desired concentration. After the dilution plates are set up the growing cultures are then diluted in a cuvette containing CAMHB and the optical density is measured at 600 nm. The inoculum is diluted such that 75 μL of this culture in CAMHB results in a starting bacterial concentration of 2-8×10^5 CFU/mL when added to the dilution plates. The plates are incubated for 16-20 hours for Enterobacteriaceae and Pseudomonas and 20-24 hours for Acinetobacter at 37° C. The MIC values are read visually as the lowest concentration well with no bacterial growth.

[2] = tested on: E. coli AG100; assay: Broth microdilution MIC in CAMHB; format: cell-based; details: Escherichia coli; MHB; wild-type parent strain E. coli AG100; read-out: Minimum Inhibitory Concentration, E. coli AG100
Method: as §1, §2, §3

[3] = tested on: P. aeruginosa ATCC 35151; assay: Broth microdilution MIC in CAMHB; format: cell-based; details: Pseudomonas aeruginosa, ATCC35151; MHB; hyper-permeable strain; read-out: Minimum Inhibitory Concentration, P. aeruginosa ATCC 35151
Method: as §1, §2, §3

[4] = tested on: E. coli 901C; assay: Broth microdilution MIC in CAMHB; format: cell-based; details: Escherichia coli; MHB; hyper-permeable E. coli 901C; read-out: Minimum Inhibitory Concentration, E. coli 901C
Method: as §1, §2, §3

[5] = tested on: K. pneumoniae 848844 producing SHV-11 and KPC-2; assay: Broth microdilution MIC in CAMHB; format: cell-based; details: Klebsiella pneumoniae, read-out: Minimum Inhibitory Concentration, K. pneumoniae 848844
Method: as §1, §2, §3

[6] = tested on: P. aeruginosa (ΔmexAB-oprM); assay: Broth microdilution MIC in CAMHB; format: cell-based; details: Pseudomonas aeruginosa, read-out: Minimum Inhibitory Concentration, P. aeruginosa ΔmexAB-OprM
Method: as §1, §2, §3

[7] = tested on: K. pneumoniae UMM producing SHV-5 and KPC-2; assay: Broth microdilution MIC in CAMHB; format: cell-based; details: Klebsiella pneumoniae, read-out: Minimum Inhibitory Concentration, K. pneumoniae UMM
Method: as §1, §2, §3

[8] = tested on: A. baumannii ATCC 19606; assay: Broth microdilution MIC in CAMHB; format: cell-based; details: Acinetobacter baumannii, ATCC19606; MHB; read-out: Minimum Inhibitory Concentration, A. baumannii ATCC 19606
Method: as §1, §2, §3

[9] = tested on: E. coli D22; assay: Broth microdilution MIC in CAMHB; format: cell-based; details: Escherichia coli; MHB; hyper-permeable E. coli D22; read-out: Minimum Inhibitory Concentration, E. coli D22
Method: as §1, §2, §3

[10] = tested on: E. coli ATCC 25922; assay: Broth microdilution MIC in CAMHB; format: cell-based; details: Escherichia coli, ATCC25922; MHB; E. coli ATCC 25922; read-out: Minimum Inhibitory Concentration, E. coli 25922
Method: as §1, §2, §3

[11] = tested on: K. pneumoniae SI-117 producing VIM-1; assay: Broth microdilution MIC in CAMHB; format: cell-based; details: Klebsiella pneumoniae, read-out: Minimum Inhibitory Concentration, K. pneumoniae SI-117
Method: as §1, §2, §3

[12] = tested on: E. coli AG100A; assay: Broth microdilution MIC in CAMHB; format: cell-based; details: Escherichia coli, read-out: Minimum Inhibitory Concentration, E. coli AG100A
Method: as §1, §2, §3

[13] = biological target: T1, E. coli K12 PBP3 (Escherichia coli, UniProt P0AD68); assay: biochemical; format: binding
T1 construct: made in house
T1 sequence (P0AD68 1-577): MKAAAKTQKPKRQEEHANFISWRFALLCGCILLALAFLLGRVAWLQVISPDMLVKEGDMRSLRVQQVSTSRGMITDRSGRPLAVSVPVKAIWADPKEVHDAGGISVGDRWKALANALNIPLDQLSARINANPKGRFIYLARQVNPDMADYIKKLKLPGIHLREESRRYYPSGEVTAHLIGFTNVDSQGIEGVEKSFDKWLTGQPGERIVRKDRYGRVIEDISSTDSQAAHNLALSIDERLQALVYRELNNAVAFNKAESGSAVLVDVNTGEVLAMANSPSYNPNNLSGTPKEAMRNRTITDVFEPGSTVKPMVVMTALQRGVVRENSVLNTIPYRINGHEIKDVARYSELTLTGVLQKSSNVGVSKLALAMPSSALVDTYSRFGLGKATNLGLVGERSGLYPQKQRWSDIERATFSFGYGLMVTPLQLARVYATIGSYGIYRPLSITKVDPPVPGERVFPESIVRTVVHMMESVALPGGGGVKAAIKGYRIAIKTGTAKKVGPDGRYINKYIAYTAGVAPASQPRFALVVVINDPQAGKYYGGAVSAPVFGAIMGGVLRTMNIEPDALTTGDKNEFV
Source text: Example I: Experimental Method for Penicillin-Binding Protein Binding Assays with Bocillin-FL Via Fluorescence Polarization
To determine the ability of boronic acid-based test PBP inhibitors to bind Penicillin Binding Proteins (PBPs), Bocillin-FL (fluorescently-labeled penicillin V; ThermoFisher Scientific) was used in a fluorescence polarization (FP) competition binding assay to assess inhibitor binding to PBP2, PBP3 or PBP4 from Escherichia coli (K12), PBP3 from Pseudomonas aeruginosa (PA01), PBP1a, PBP2 and PBP3 from Acinetobacter baumannii (ATCC 19606), and PBP2 from Neiserria gonorrheae (FA19). PBPs were cloned and purified as described previously (E. coli PBPs, King, D. T, et al., ACS Infectious Diseases 2015, 1, 175-184; P. aeruginosa PBP3, Han et. al., PNAS 2010, 107 (51), 22002-22007; A. baumannii PBPs, Penwell et. al., Antimicrob. Agents Chemother. 2015, 59 (3), 1680-1689; N. gonorrhoeae PBP2, Singh et. al., J Biol. Chem. 2019, 294 (38), 14020-14032). To establish assay conditions for competition binding, enzyme titration/saturation binding experiments were initially performed. Bocillin-FL was prepared at 0.2 μM in a buffer comprised of 50 mM Hepes (pH 8.0), 300 mM NaCl and 5% (v/v) glycerol for reactions with E. coli, P. aeruginosa and N. gonorrhoeae PBPs, and 25 mM Tris (pH 8.0), 200 mM NaCl and 10% (v/v) glycerol and 0.005% (v/v) Tween 20 for reactions with A. baumannii PBPs. Saturation binding was performed by mixing 40 μl of PBP solutions ranging in concentrations from 0-24 μM with 40 μl of the 0.2 μM Bocillin-FL solution, in individual wells of a black 384-well microplate. FP was measured immediately upon mixing (Excitation, 490 nm; Emission, 520 nm; g-factor, 0.96), using a Cytation3 (BioTek) microplate reader and measured continuously for up to 120 minutes. […] The competition binding assay (80 μl final volume) was validated using beta-lactams and PBPs at final concentrations of: 1.5 μM, E. coli PBP3; 0.75 μM, P. aeruginosa PBP3; 1 μM A. baumannii PBP1a; 2.5 μM A. baumannii PBP2; 0.2 μM A. baumannii PBP3; and […] N. gonorrhoeae PBP2. Bocillin-FL was at 0.1 μM (0.05 μM with A. baumannii PBP1a) and beta-lactam concentrations ranged from 0-1000 μM. […] Bocillin-FL was added and the FP immediately measured for up to 60 minutes (90 minutes for E. coli PBP2). […] The beta-lactam potency was reported as the concentration of beta-lactam required to reduce the amount of PBP bound-Bocillin-FL by 50% (EC50). […] Binding assays for boronic acid PBP inhibitors were performed in an identical fashion for the respective PBPs

| Structure (SMILES) | MIC [1] [µg/mL] | MIC [2] [µg/mL] | MIC [3] [µg/mL] | MIC [4] [µg/mL] | MIC [5] [µg/mL] | MIC [6] [µg/mL] | MIC [7] [µg/mL] | MIC [8] [µg/mL] | MIC [9] [µg/mL] | MIC [10] [µg/mL] | MIC [11] [µg/mL] | MIC [12] [µg/mL] | EC50 [13] [µM] |
| --- | --- | --- | --- | --- | --- | --- | --- | --- | --- | --- | --- | --- | --- |
| NCCN1CCCN(C(=O)N[C@H](C(=O)N[C@H]2Cc3cccc(C(=O)O)c3OB2O)c2c(F)cc(O)cc2F)C1=O (single isomer, unassigned) [Example 231] | > 128 | > 128 | 8 to 16 (≈ 14.3 to 28.5 µM) | > 128 | > 128 | > 128 | 32 to 64 (≈ 57 to 114 µM) | > 128 | > 128 | > 128 | > 128 | > 128 | 30 to 500 |
| NC1(CN2CCN(C(=O)N[C@@H](C(=O)N[C@H]3Cc4cccc(C(=O)O)c4OB3O)c3ccc(O)c(F)c3F)C(=O)C2=O)CC1 (single isomer, unassigned) [Example 236] | > 128 | 32 to 64 (≈ 53.2 to 106 µM) | < 0.25 | 32 to 64 (≈ 53.2 to 106 µM) | 32 to 64 (≈ 53.2 to 106 µM) | 2 to 4 (≈ 3.33 to 6.65 µM) | 0.5 to 1 (≈ 0.831 to 1.66 µM) | > 128 | 32 to 64 (≈ 53.2 to 106 µM) | 32 to 64 (≈ 53.2 to 106 µM) | 2 to 4 (≈ 3.33 to 6.65 µM) | 32 to 64 (≈ 53.2 to 106 µM) | < 30 |
| NC1(CN2CCN(C(=O)N[C@H](C(=O)N[C@H]3Cc4cccc(C(=O)O)c4OB3O)c3ccc(O)c(F)c3F)C(=O)C2=O)CC1 (single isomer, unassigned) [Example 237] | > 128 | > 128 | 0.5 to 1 (≈ 0.831 to 1.66 µM) | > 128 | > 128 | 8 to 16 (≈ 13.3 to 26.6 µM) | 2 to 4 (≈ 3.33 to 6.65 µM) | > 128 | > 128 | > 128 | 32 to 64 (≈ 53.2 to 106 µM) | > 128 | 30 to 500 |
| C[C@H]1CN(CCF)C(=O)C(=O)N1C(=O)N[C@@H](C(=O)N[C@H]1Cc2cccc(C(=O)O)c2OB1O)c1ccc(O)c(F)c1F [Example 241, (3R)-3-(2-(2,3-difluoro-4-hydroxyphenyl)-2-((S)-4-(2-fluoroethyl)-6-methyl-2,3-dioxopiperazine-1-carboxamido)acetamido)-2-hydroxy-3,4-dihydro-2H-benzo[e][1,2]oxaborinine-8-carboxylic acid] | > 128 | 32 to 64 (≈ 54 to 108 µM) | 2 to 4 (≈ 3.38 to 6.75 µM) | > 128 | 32 to 64 (≈ 54 to 108 µM) | 2 to 4 (≈ 3.38 to 6.75 µM) | < 0.25 | > 128 | 32 to 64 (≈ 54 to 108 µM) | 8 to 16 (≈ 13.5 to 27 µM) | 2 to 4 (≈ 3.38 to 6.75 µM) | 32 to 64 (≈ 54 to 108 µM) |  |
| NCCCN1CCN(C(=O)N[C@@H](C(=O)N[C@H]2Cc3cccc(C(=O)O)c3OB2O)c2cc(F)c(O)c(F)c2F)C(=O)C1=O (single isomer, unassigned) [Example 246] | > 128 | > 128 | 0.5 to 1 (≈ 0.823 to 1.65 µM) | > 128 | > 128 | 8 to 16 (≈ 13.2 to 26.3 µM) | 2 to 4 (≈ 3.29 to 6.59 µM) | > 128 | 32 to 64 (≈ 52.7 to 105 µM) | 32 to 64 (≈ 52.7 to 105 µM) | 8 to 16 (≈ 13.2 to 26.3 µM) | > 128 |  |
| NCCN1CCN(C(=O)N[C@H](C(=O)N[C@H]2Cc3cccc(C(=O)O)c3OB2O)c2c(Cl)cccc2Cl)C(=O)C1=O (single isomer, unassigned) [Example 225] | > 128 | > 128 | > 128 | > 128 | > 128 | > 128 | 32 to 64 (≈ 54 to 108 µM) | > 128 | > 128 | > 128 | > 128 | > 128 |  |
| C[C@H]1CN(CCN)C(=O)C(=O)N1C(=O)N[C@@H](C(=O)N[C@H]1Cc2cccc(C(=O)O)c2OB1O)c1ccc(O)c(F)c1F [Example 242, (3R)-3-(2-((S)-4-(2-aminoethyl)-6-methyl-2,3-dioxopiperazine-1-carboxamido)-2-(2,3-difluoro-4-hydroxyphenyl)acetamido)-2-hydroxy-3,4-dihydro-2H-benzo[e][1,2]oxaborinine-8-carboxylic acid] | > 128 | 32 to 64 (≈ 54.3 to 109 µM) | 0.5 to 1 (≈ 0.848 to 1.7 µM) | 32 to 64 (≈ 54.3 to 109 µM) | 32 to 64 (≈ 54.3 to 109 µM) | 8 to 16 (≈ 13.6 to 27.2 µM) | 0.5 to 1 (≈ 0.848 to 1.7 µM) | > 128 | 8 to 16 (≈ 13.6 to 27.2 µM) | 8 to 16 (≈ 13.6 to 27.2 µM) | 2 to 4 (≈ 3.39 to 6.79 µM) | 32 to 64 (≈ 54.3 to 109 µM) |  |
| NC1(CN2CCN(C(=O)NC(C(=O)N[C@H]3Cc4cccc(C(=O)O)c4OB3O)c3cc(F)c(O)c(F)c3F)C(=O)C2=O)CC1 (single isomer, unassigned) [Example 245] | > 128 | > 128 | 0.5 to 1 (≈ 0.807 to 1.61 µM) | > 128 | > 128 | 8 to 16 (≈ 12.9 to 25.8 µM) | 2 to 4 (≈ 3.23 to 6.46 µM) | > 128 | > 128 | > 128 | 8 to 16 (≈ 12.9 to 25.8 µM) | > 128 |  |
